This assay has as its target T1, sodium-proton exchanger of subtype 3 (NHE3) (Homo sapiens, UniProt P48764).
T1 construct: expressed in transfected cells
T1 sequence (P48764 26-834): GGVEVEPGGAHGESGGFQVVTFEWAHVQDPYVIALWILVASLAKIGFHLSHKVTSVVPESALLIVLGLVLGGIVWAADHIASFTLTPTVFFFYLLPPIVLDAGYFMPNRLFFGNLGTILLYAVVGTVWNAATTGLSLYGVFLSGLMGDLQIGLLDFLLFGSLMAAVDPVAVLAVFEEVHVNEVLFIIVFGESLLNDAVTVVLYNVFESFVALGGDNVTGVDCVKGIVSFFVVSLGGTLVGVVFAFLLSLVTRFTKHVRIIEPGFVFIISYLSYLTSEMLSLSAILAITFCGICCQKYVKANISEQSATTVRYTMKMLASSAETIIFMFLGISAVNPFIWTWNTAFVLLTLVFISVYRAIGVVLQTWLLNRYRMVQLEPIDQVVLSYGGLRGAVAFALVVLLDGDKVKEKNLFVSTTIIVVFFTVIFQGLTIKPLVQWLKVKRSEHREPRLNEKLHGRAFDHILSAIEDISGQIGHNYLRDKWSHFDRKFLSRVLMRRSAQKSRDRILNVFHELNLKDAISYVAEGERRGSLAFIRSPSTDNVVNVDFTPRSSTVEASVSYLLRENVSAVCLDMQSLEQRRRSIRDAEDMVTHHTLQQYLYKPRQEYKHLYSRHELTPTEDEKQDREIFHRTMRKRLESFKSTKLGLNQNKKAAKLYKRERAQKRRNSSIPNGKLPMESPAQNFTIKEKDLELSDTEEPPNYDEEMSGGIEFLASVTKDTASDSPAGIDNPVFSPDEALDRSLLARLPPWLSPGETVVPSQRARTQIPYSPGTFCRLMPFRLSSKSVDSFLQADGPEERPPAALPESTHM
Briefly: Recovery of intracellular pH (pHi) after acidification in LAP1 cells stably expressing NHE3 (BCECF fluorescence, FLIPR). In kind it is cell-based. The conditions noted are these: LAP1 cells stably expressing NHE3, pH recovery after acidification, range 1 is % inhibition at 10 μM.

[1] abbreviates: read-out: Activity range (inhibitory effect on NHE3).

Molecules are shown by their SMILES. Read-outs that look alike come from different tables or passages of the source.

As to `N[C@H]1CCCN([C@H]2CCc3ccccc3[C@@H]2Oc2cccc(F)c2)C1` (racemic) [Example 168, (S)-1-[rac-trans-(1,2)-1-(3-fluorophenoxy)-1,2,3,4-tetrahydronaphthalen-2-yl]piperidin-3-ylamine], the inhibition at 10 µM under setting [1] lay in the range of 20 to 50%. Regarding `N[C@@H]1CCCN([C@H]2Cc3c(Cl)cc(Cl)cc3[C@@H]2Oc2ccc(S(N)(=O)=O)c(Cl)c2Cl)C1` [Example 550, 4-[trans-(1S,2S)-2-((R)-3-aminopiperidin-1-yl)-4,6-dichloroindan-1-yloxy]-2,3-dichlorobenzenesulfonamide], the IC50 under setting [1] is < 1000 nM.

For `CC(=O)Nc1cccc(O[C@@H]2c3ccccc3C[C@H]2N2C[C@H]3CNC[C@H]3C2)c1` (racemic) [Example 674, N-{3-[rac-trans-(1,2)-2-(hexahydropyrrolo[3,4-c]pyrrol-2-yl)indan-1-yloxy]phenyl}acetamide], the IC50 under setting [1] lay within 1000 to 10000 nM. With `N[C@H]1CCCN([C@H]2CCc3ccccc3[C@@H]2Oc2ccc(NC(=O)OCc3ccccc3)cc2)C1` (racemic) [Example 239, {4-[rac-trans-(1,2)-2-((S)-3-aminopiperidin-1-yl)-1,2,3,4-tetrahydronaphthalen-1-yloxy]phenyl}carbamic acid benzyl ester], under setting [1], the inhibition at 10 µM fell in the range of 20 to 50%.

As to `CC(=O)Nc1cccc(O[C@H]2c3ccccc3C[C@@H]2N2CCC[C@@H](NCCC(F)(F)F)C2)c1` [Example 632, N-(3-{trans-(1S,2S)-2-[(R)-3-(3,3,3-trifluoropropylamino)piperidin-1-yl]indan-1-yloxy}-phenyl)acetamide], the IC50 under setting [1] is < 1000 nM. The same measure, in the same setting: for `CN(C)S(=O)(=O)c1cc(Cl)c(O[C@H]2c3ccccc3C[C@@H]2N2CCCC2)c(Cl)c1` (racemic) [Example 403, 3,5-dichloro-N,N-dimethyl-4-(rac-trans-(1,2)-2-pyrrolidin-1-ylindan-1-yloxy)benzenesulfonamide] the value was 1000 to 10000 nM. On the same count and under the same terms, for `O=C1CCCN1c1ccc(Cl)c(O[C@H]2c3cc(Cl)cc(Cl)c3C[C@@H]2N2CC[C@@H](O)C2)c1` [Example 336, 1-{4-chloro-3-[(1S,2S)-4,6-dichloro-2-((R)-3-hydroxypyrrolidin-1-yl)indan-1-yloxy]phenyl}pyrrolidin-2-one] the value was < 1000 nM; for `O=C1CNC(=O)N1c1ccc(Cl)c(O[C@H]2c3cc(Cl)cc(Cl)c3C[C@@H]2N2CC[C@@H](O)C2)c1` [Example 433, 3-{4-chloro-3-[(1S,2S)-4,6-dichloro-2-((R)-3-hydroxypyrrolidin-1-yl)indan-1-yloxy]phenyl}imidazolidine-2,4-dione], 1000 to 10000 nM. For `CC(C)(C)N[C@H]1Cc2ccccc2[C@@H]1Oc1ccc(S(C)(=O)=O)cc1` (racemic) [Example 701, tert-butyl-[1-(4-methanesulfonylphenoxy)indan-2-yl]amine], under setting [1], the IC50 lay in the range of 1000 to 10000 nM.

As to `N[C@H]1CCCN([C@H]2CCc3ccccc3[C@@H]2Oc2cccc3ccc(Cl)nc23)C1` (racemic) [Example 154, (S)-1-[rac-trans-(1,2)-1-(2-chloroquinolin-8-yloxy)-1,2,3,4-tetrahydronaphthalen-2-yl]piperidin-3-ylamine], the IC50 under setting [1] lay within 1000 to 10000 nM. `Cc1cc(-n2c(C)nnc2C)ccc1O[C@H]1c2cc(Cl)cc(Cl)c2C[C@@H]1N1CC[C@@H](O)C1` [Example 131, (R)-1-{trans-(1S,2S)-4,6-dichloro-1-[4-(3,5-dimethyl-[1,2,4]triazol-4-yl)-2-methylphenoxy]indan-2-yl}pyrrolidin-3-ol]: under setting [1], the IC50 is < 1000 nM. `NCC1CCN([C@@H]2Cc3ccccc3[C@H]2Oc2cccc(NC(N)=O)c2)CC1` (racemic) [Example 235, {3-[rac-trans-(1,2)-2-(4-aminomethylpiperidin-1-yl)indan-1-yloxy]phenyl}urea]: under setting [1], the IC50 lay in the range of 1000 to 10000 nM. On the same count and under the same terms, for `c1ccc2c(c1)C[C@H](N1CCCC1)[C@H]2Oc1cccc2cccnc12` (racemic) [Example 595, 8-(rac-trans-(1,2)-2-pyrrolidin-1-ylindan-1-yloxy)quinoline] the value was 1000 to 10000 nM. On to `N#Cc1ccc2cccc(O[C@H]3c4ccccc4CC[C@@H]3N3CCOCC3)c2n1` (racemic) [Example 594, 8-(rac-trans-(1,2)-2-morpholin-4-yl-1,2,3,4-tetrahydronaphthalen-1-yloxy)quinoline-2-carbonitrile], for which, under setting [1], the inhibition at 10 µM is 20 to 50%. Consider `CS(=O)(=O)c1ccc(O[C@H]2c3cc(Cl)cc(F)c3C[C@@H]2N2CC[C@@H](O)C2)cc1` [Example 108, (R)-1-[trans-(1S,2S)-6-chloro-4-fluoro-1-(4-methanesulfonylphenoxy)indan-2-yl]pyrrolidin-3-ol], for which the IC50 under setting [1] fell in the range of 1000 to 10000 nM. As for `CCc1ccc(O[C@@H]2c3ccccc3C[C@H]2N2CCC(CN)CC2)c(C(C)(C)C)c1` (racemic) [Example 609, C-{1-[rac-trans-(1,2)-1-(2-tert-butyl-4-ethylphenoxy)indan-2-yl]piperidin-4-yl}methylamine], the IC50 under setting [1] lay in the range of 1000 to 10000 nM.

With `CS(=O)(=O)c1ccc(N[C@H]2c3ccccc3C[C@@H]2N2CCCC2)cc1` [Example 707, (4-Methanesulfonyl-phenyl)-((1S,2S)-2-pyrrolidin-1-yl-indan-1-yl)-amine], the IC50 under setting [1] was in the range of 1000 to 10000 nM.

Regarding `CN(c1ccc(F)c(O[C@H]2c3cc(Cl)cc(F)c3C[C@@H]2N2CC[C@@H](O)C2)c1)S(C)(=O)=O` [Example 673, N-{3-[(1S,2S)-6-chloro-4-fluoro-2-((R)-3-hydroxypyrrolidin-1-yl)indan-1-yloxy]-4-fluorophenyl}-N-methyl-methanesulfonamide], the IC50 under setting [1] lay within 1000 to 10000 nM. On the same count and under the same terms, next, `CCN(CC)[C@@H]1Cc2ccccc2[C@H]1Oc1ccc(S(N)(=O)=O)c(Cl)c1Cl` (racemic) [Example 355, 2,3-dichloro-4-(rac-trans-(1,2)-2-diethylaminoindan-1-yloxy)benzenesulfonamide]: 1000 to 10000 nM. As for `Cc1cc(O[C@@H]2c3ccccc3C[C@H]2N2C[C@H]3CNC[C@H]3C2)cc(C)c1C#N` (racemic) [Example 505, 4-[rac-trans-(1,2)-2-(Hexahydropyrrolo[3,4-c]pyrrol-2-yl)indan-1-yloxy]-2,6-dimethylbenzonitrile], the IC50 under setting [1] fell in the range of 1000 to 10000 nM.

Consider `COc1cc(Cl)ccc1O[C@H]1c2ccccc2CC[C@@H]1N1CCC[C@H](N)C1` (racemic) [Example 174, (S)-1-[rac-trans-(1,2)-1-(4-chloro-2-methoxyphenoxy)-1,2,3,4-tetrahydronaphthalen-2-yl]piperidin-3-ylamine], for which the inhibition at 10 µM under setting [1] lay within 20 to 50%.

`Cc1nnc(C)n1-c1ccc(O[C@H]2c3cc(Cl)cc(Cl)c3C[C@@H]2N(C)CCN(C)C)c(F)c1` [Example 726, N-{trans-(1S,2S)-4,6-Dichloro-1-[4-(3,5-dimethyl-[1,2,4]triazol-4-yl)-2-fluoro-phenoxy]-indan-2-yl}-N,N′,N′-trimethyl-ethane-1,2-diamine]: under setting [1], the IC50 was < 1000 nM. Take `Cn1ccn(-c2ccc(Cl)c(O[C@H]3c4cc(Cl)cc(F)c4C[C@@H]3N3CC[C@@H](O)C3)c2)c1=O` [Example 339, 1-{4-chloro-3-[(1S,2S)-6-chloro-4-fluoro-2-((R)-3-hydroxypyrrolidin-1-yl)indan-1-yloxy]phenyl}-3-methyl-1,3-dihydroimidazol-2-one]: under setting [1], the IC50 was < 1000 nM. In the case of `CN1CCN(c2cccc(O[C@H]3c4cc(Cl)cc(F)c4C[C@@H]3N3CC[C@@H](O)C3)c2)C1=O` [Example 320, 1-{3-[trans-(1S,2S)-6-chloro-4-fluoro-2-((R)-3-hydroxypyrrolidin-1-yl)indan-1-yloxy]phenyl}-3-methylimidazolidin-2-one], the IC50 under setting [1] fell in the range of 1000 to 10000 nM. In the case of `Cc1cc2c(O[C@H]3c4ccccc4CC[C@@H]3N3CCOCC3)cccc2[nH]1` (racemic) [Example 399, 2-methyl-4-(rac-trans-(1,2)-2-morpholin-4-yl-1,2,3,4-tetrahydronaphthalen-1-yloxy)-1H-indole], under setting [1], the inhibition at 10 µM was 20 to 50%.

Turning to `N[C@@H]1CCCN([C@@H]2Cc3ccccc3[C@H]2Oc2ccc(S(N)(=O)=O)c(Cl)c2Cl)C1` (racemic) [Example 518, 4-[rac-trans-(1,2)-2-((R)-3-aminopiperidin-1-yl)indan-1-yloxy]-2,3-dichlorobenzenesulfonamide], the IC50 under setting [1] was < 1000 nM. As to `N#Cc1ccc(O[C@H]2c3ccccc3C[C@@H]2N2CCCC2)cc1Cl` (racemic) [Example 392, 2-chloro-4-(rac-trans-(1,2)-2-pyrrolidin-1-ylindan-1-yloxy)benzonitrile], the IC50 (Activity range (inhibitory effect on NHE3)) fell in the range of 1000 to 10000 nM.

On to `Cc1nnc(C)n1-c1ccc(O[C@H]2c3cc(Cl)cc(Cl)c3C[C@@H]2N2CCCNCC2)cc1` [Example 347, 1-{trans-(1S,2S)-4,6-dichloro-1-[4-(3,5-dimethyl-[1,2,4]triazol-4-yl)phenoxy]indan-2-yl}-[1,4]diazepane], for which, under setting [1], the IC50 was < 1000 nM.

These data come from patent US8822449B2, “Substituted aminoindanes and analogs thereof, and the pharmaceutical use thereof” (Sanofi, priority 2008, dated 2014).
